Measurements: patent US8178551B2 (Green Cross Corporation, priority 2007, dated 2012)
Structures can show the parent of a compound that is named as a salt.

What was measured:
[1] = Drug transport assay with MDCK monolayers (apparent permeability, Papp); format: in vitro ADME; details: dog, MDCK, apical to basolateral, 37° C.
Protocol: (§1) Experiment 1. Permeability Measurement by Performing a Drug Transport Assay with MDCK Monolayers
(§2) (+)-3-HM was dissolved in DMSO at 10 mM and stored at 4° C. MDCK cells were obtained from the ATCC (American Type Culture Collection, CCL-34). MDCK cells were maintained in DMEM (Dulbecco's MEM with high glucose) containing 1×NEAA (Non-essential amino acids), 10 mM HEPES, 100 units penicillin, 0.1 mg/ml streptomycin and 8% FBS. The cells were cultivated in T-75 flasks in a cell culture incubator at 37° C. MDCK cells were passaged twice per week. When the cells were 90% confluence, the cells were plated at 1×10^5 cells/well in transwell. The cells were fed with fresh medium every other day. The Cells were grown to confluence on the transwell for 5 days. When the cells have reached confluence and are differentiated, they are ready to be used for transport studies. The TEER (Transepithelial electrical resistance) of each well was measured by Millicell-ERS system ohm meter. The electrode was immersed in 70% ethanol and PBS for 15 minutes. […] MDCK monolayers with TEER values >400Ω were used. After the each well was washed by using sterile HBSS (hank's buffered solution) and (+)-3-HM was diluted 100-fold in HBSS, the apical wells were filled with 200 ul of the test compounds. The basolateral wells were filled with 1 ml of HBSS buffer. Only 0.1% DMSO treated wells prepared to adjust for analysis. The cells were incubated at 37° C. for 1 hour. At the end of the transport period, the result samples were removed from the apical (150 ul) and basolateral (900 ul) wells. The representative compounds of Examples were conducted in same conditions.
(§3) Experiment 2. The HPLC Analysis and the Calculation of Papp
(§4) HPLC analyses were performed using a WATERS HPLC system. A ZORBAX Eclipse XDB-C18 (4.6×250 mm, 5 μm particle size) was used. The optimal operating conditions are as followed; Mobile phase A is composed of distilled water-acetonitrile (ACN) (9:1, v/v) with 0.1% trifluoroacetic acid (TFA), and mobile phase B is 90% acetonitrile with 0.1% TFA. All buffers were used after the 0.45 μm filtration.
(§5) The UV detection was performed at 280 nm or the fluorescence detection was performed at Excitation in 228 nm and Emission in 330 nm.
(§6) The concentration of A and B buffer was performed by the gradient method and the total analysis time was 38 min. The optimal operating conditions: elution gradient 0-10 min (10-50%), 10-20 min (50-90%), 20-25 min (90%), 25-27 min (90-10%), 27-38 min (10%). After the analysis of HPLC, the percentage of area of (+)-3-HM and the compound of Example 2 were calculated by remained concentration (μg/ml).
(§7) The apparent permeability coefficients (Papp), expressed in nm/sec, were calculated by the following equation: Permeability (Papp)=(Receiver Volume×Receiver Conc.)/(Filter surface area×Reaction Time×donor Conc.)×10^7.

MDCK monolayers [2] = experiment: as above; format: in vitro ADME; details: apical to basolateral, 37° C., 1 hour
Protocol: as §1, §2, §3, §4, §5, §6, §7

[3] = test system: MPTP-induced Parkinson's disease animal model; details: daily injections, literature; cited from earlier work
[4] = known drugs; cited from earlier work
MDCK monolayers [5] = details: MDCK Papp; cited from earlier work

Row | Compound | Papp A→B at 1 h, 100 µM [1] [×10⁻⁶ cm/s] | also measured
1 | CCC(C)OC(=O)OCOc1ccc2c(c1)[C@]13CCCC[C@@H]1[C@H](C2)NCC3 (single isomer, unassigned; (+)) [Example 25, (+)-sec-Butyl(morphinan-3-yloxy)methyl carbonate TFA] | 20.3 | –
2 | CC(C)OC(=O)OCOc1ccc2c(c1)[C@]13CCCC[C@@H]1[C@H](C2)NCC3 [Example 2, (+)-Isopropyl(morphinan-3-yloxy)methyl carbonate] | 26.2 | –
3 | CCCOC(=O)OCOc1ccc2c(c1)[C@]13CCCC[C@@H]1[C@H](C2)NCC3 [Example 3, (+)-(Morphinan-3-yloxy)methyl propyl carbonate] | 21.9 | –
4 | O=C(OCOc1ccc2c(c1)[C@]13CCCC[C@@H]1[C@H](C2)NCC3)OCC1CC1 [Example 4, (+)-Cyclopropylmethyl(morphinan-3-yloxy)methyl carbonate] | 15.3 | –
5 | O=C(OCOc1ccc2c(c1)[C@]13CCCC[C@@H]1[C@H](C2)NCC3)OC1CCCC1 [Example 6, (+)-Cyclopentyl(morphinan-3-yloxy)methyl carbonate] | 20.6 | –
6 | O=C(OCOc1ccc2c(c1)[C@]13CCCC[C@@H]1[C@H](C2)NCC3)OC1CCCCC1 [Example 8, (+)-Cyclohexyl(morphinan-3-yloxy)methyl carbonate] | 19.7 | –
7 | O=C(OCOc1ccc2c(c1)[C@]13CCCC[C@@H]1[C@H](C2)NCC3)OCC1CCCCC1 [Example 9, (+)-Cyclohexylmethyl(morphinan-3-yloxy)methyl carbonate] | 48.7 | –
8 | O=C(OCOc1ccc2c(c1)[C@]13CCCC[C@@H]1[C@H](C2)NCC3)OCC1CCCC1 [Example 15, (+)-Cyclopentylmethyl(morphinan-3-yloxy)methyl carbonate TFA] | 33.7 | –
9 | O=C(OCOc1ccc2c(c1)[C@]13CCCC[C@@H]1[C@H](C2)NCC3)OCC1CCC1 [Example 17, (+)-Cyclobutylmethyl(morphinan-3-yloxy)methyl carbonate TFA] | 22.7 | –
10 | CC(C)COC(=O)OCOc1ccc2c(c1)[C@]13CCCC[C@@H]1[C@H](C2)NCC3 [Example 23, (+)-Isobutyl(morphinan-3-yloxy)methyl carbonate TFA] | 20.3 | –
11 | O=C(OCOc1ccc2c(c1)[C@]13CCCC[C@@H]1[C@H](C2)NCC3)OC1CCCCCC1 [Example 27, TFA] | 23.4 | –
12 | CC(Cc1ccccc1)OC(=O)OCOc1ccc2c(c1)[C@]13CCCC[C@@H]1[C@H](C2)NCC3 (stereo partly drawn) [Example 31, (+)-(Morphinan-3-yloxy)methyl 1-phenylpropan-2-yl carbonate TFA] | 22.3 | –
13 | O=C(OCOc1ccc2c(c1)[C@]13CCCC[C@@H]1[C@H](C2)NCC3)OC1CCC1 [Example 37, (+)-Cyclobutyl(morphinan-3-yloxy)methyl carbonate TFA] | 13.6 | –
14 | CCCC(C)OC(=O)OCOc1ccc2c(c1)[C@]13CCCC[C@@H]1[C@H](C2)NCC3 (stereo partly drawn) [Example 41, (+)-(Morphinan-3-yloxy)methyl pentan-2-yl carbonate TFA] | 23.1 | –
15 | CC(C)C(=O)OCOc1ccc2c(c1)[C@]13CCCC[C@@H]1[C@H](C2)NCC3 [Example 44, (+)-(Morphinan-3-yloxy)methyl isobutyrate] | 21.2 | –
16 | CCC(CC)C(=O)OCOc1ccc2c(c1)[C@]13CCCC[C@@H]1[C@H](C2)NCC3 [Example 54, (+)-(Morphinan-3-yloxy)methyl 2-ethylbutanoate TFA] | 28.9 | –
17 | O=C(OCOc1ccc2c(c1)[C@]13CCCC[C@@H]1[C@H](C2)NCC3)C1CCCCC1 [Example 56, (+)-(Morphinan-3-yloxy)methyl cyclohexanoate TFA] | 9.43 | –
18 | O=C(OCOc1ccc2c(c1)[C@]13CCCC[C@@H]1[C@H](C2)NCC3)C1CCCC1 [Example 58, (+)-(Morphinan-3-yloxy)methyl cyclopentanoate TFA] | 6.05 | –
19 | CCCCC(CC)C(=O)OCOc1ccc2c(c1)[C@]13CCCC[C@@H]1[C@H](C2)NCC3 (stereo partly drawn) [Example 60, (+)-(Morphinan-3-yloxy)methyl 2-ethylhexanoate TFA] | 20.2 | –
20 | CCC(C)C(=O)OCOc1ccc2c(c1)[C@]13CCCC[C@@H]1[C@H](C2)NCC3 (stereo partly drawn) [Example 66, (+)-(Morphinan-3-yloxy)methyl 2-methylbutanoate TFA] | 16.2 | –
21 | O=C(OCOc1ccc2c(c1)[C@]13CCCC[C@@H]1[C@H](C2)NCC3)C1CC1 [Example 68, (+)-(Morphinan-3-yloxy)methyl cyclopropanecarboxylate TFA] | 10.1 | –
22 | CC(C)CC(=O)OCOc1ccc2c(c1)[C@]13CCCC[C@@H]1[C@H](C2)NCC3 [Example 70, (+)-(Morphinan-3-yloxy)methyl 3-methylbutanoate TFA] | 16.6 | –
23 | CCC(C(=O)OCOc1ccc2c(c1)[C@]13CCCC[C@@H]1[C@H](C2)NCC3)c1ccccc1 (stereo partly drawn) [Example 72, (+)-(Morphinan-3-yloxy)methyl 2-phenylbutanoate TFA] | 13.1 | –
24 | CC(C)OC(=O)OCOc1ccc2c(c1)[C@]13CCCC[C@@H]1[C@H](C2)NCC3 [Example 80, (+)-Isopropyl(morphinan-3-yloxy)methyl carbonate L-(+)-tartaric acid] | – | Papp (MDCK monolayers [2]): 18.57 ×10⁻⁶ cm/s
25 | CC(C)(C)C(=O)OCOc1ccc2c(c1)[C@]13CCCC[C@@H]1[C@H](C2)NCC3 [Example 105, (+)-(Morphinan-3-yloxy)methyl pivalate salicylic acid] | 20.3 | –
26 | Oc1ccc2c(c1)[C@@]13CCCC[C@H]1[C@@H](C2)NCC3 [HM, (+)-3-hydroxymorphinan] | 3.33 | neuroprotective property in MPTP models (DA neurons in substantia nigra pars compacta, striatal DA levels) [3]: dopamine (DA) neurons in substantia nigra pars compacta have been protected and DA levels in striatum has been restored
27 | CC(=O)Nc1ccc(O)cc1 [acetaminophen] | – | human absorption [4]: 94%; Permeability values for known drugs (MDCK monolayers [5]): 35 ×10⁻⁶ cm/s
28 | C[C@@H]1C[C@H]2[C@@H]3CCC4=CC(=O)C=C[C@]4(C)[C@@]3(F)[C@@H](O)C[C@]2(C)[C@@]1(O)C(=O)CO [dexamethasone] | – | human absorption [4]: 98%
29 | CC(C(=O)O)c1cccc(C(=O)c2ccccc2)c1 (stereo not shown) [ketoprofen] | – | Permeability values for known drugs (MDCK monolayers [5]): 20 ×10⁻⁶ cm/s
